Laboratory results as given in the OligoGym collection.
Where “and” joins values, the source holds several entries; their conditions need not be identical. Identical values can stand only once. HELM strings list units from the 5' end as sugar, base in round brackets, then linkage (d deoxyribose, r ribose, m 2'-O-methyl, p phosphodiester). Methylation of C is not given here. [moe] = 2'-O-(2-methoxyethyl) (MOE); [cEt] = constrained ethyl (cEt); [sp] = phosphorothioate linkage

Molecular target: HBV
Conditions: ASO

Substance	target mRNA inhibition (HepG2, 0.07 µM)	further results
RNA1{[moe](G)[sp].[cEt](T)[sp].[cEt](T)[sp].d(C)[sp].d(C)[sp].d(G)[sp].d(C)[sp].d(A)[sp].d(G)[sp].d(T)[sp].d(A)[sp].d(T)[sp].d(G)[sp].[cEt](G)[sp].[cEt](A)[sp].[moe](T)}$$$$V2.0	69% and 72%	
RNA1{[moe](G)[sp].[cEt](A)[sp].d(G)[sp].d(T)[sp].d(T)[sp].d(C)[sp].d(C)[sp].d(G)[sp].d(C)[sp].d(A)[sp].d(G)[sp].d(T)[sp].[cEt](A)[sp].[moe](T)[sp].[cEt](G)[sp].[moe](G)}$$$$V2.0	75% and 68%	
RNA1{[moe](A)[sp].[cEt](G)[sp].d(G)[sp].d(A)[sp].d(G)[sp].d(T)[sp].d(T)[sp].d(C)[sp].d(C)[sp].d(G)[sp].d(C)[sp].d(A)[sp].[cEt](G)[sp].[moe](T)[sp].[cEt](A)[sp].[moe](T)}$$$$V2.0	74% and 87%	target mRNA inhibition (HepG2, 0.0092593 µM): 12%; target mRNA inhibition (HepG2, 0.0277778 µM): 40%; target mRNA inhibition (HepG2, 0.0833333 µM): 62%; target mRNA inhibition (HepG2, 0.25 µM): 82%
RNA1{[moe](C)[sp].[moe](G)[sp].[moe](T)[sp].[moe](G)[sp].d(C)[sp].d(A)[sp].d(G)[sp].d(A)[sp].d(G)[sp].d(G)[sp].d(T)[sp].d(G)[sp].d(A)[sp].[moe](A)[sp].[moe](G)[sp].[moe](C)}$$$$V2.0	46% and 44%	
RNA1{[moe](C)[sp].[moe](C)[sp].[moe](A)[sp].d(A)[sp].d(T)[sp].d(T)[sp].d(T)[sp].d(A)[sp].d(T)[sp].d(G)[sp].d(C)[sp].d(C)[sp].[moe](T)[sp].[moe](A)[sp].[moe](C)[sp].[moe](A)[sp].[moe](G)}$$$$V2.0	53% and 32%	
RNA1{[moe](A)[sp].[moe](C)[sp].[moe](T)[sp].[moe](A)[sp].[moe](G)[sp].[moe](T)[sp].d(A)[sp].d(A)[sp].d(A)[sp].d(C)[sp].d(T)[sp].d(G)[sp].d(A)[sp].d(G)[sp].d(C)[sp].[moe](C)[sp].[moe](A)}$$$$V2.0	84% and 75%	target mRNA inhibition (HepG2, 0.0092593 µM): 2%; target mRNA inhibition (HepG2, 0.0277778 µM): 15%; target mRNA inhibition (HepG2, 0.0833333 µM): 38%; target mRNA inhibition (HepG2, 0.25 µM): 75%
RNA1{[moe](G)[sp].[moe](A)[sp].[moe](G)[sp].d(A)[sp].d(G)[sp].d(A)[sp].d(A)[sp].d(G)[sp].d(T)[sp].d(C)[sp].d(C)[sp].d(A)[sp].d(C)[sp].[cEt](C)[sp].[cEt](A)[sp].[cEt](C)}$$$$V2.0	38% and 23%	
RNA1{[moe](T)[sp].[moe](G)[sp].d(A)[sp].d(G)[sp].d(G)[sp].d(C)[sp].d(A)[sp].d(T)[sp].d(A)[sp].d(G)[sp].d(C)[sp].[moe](A)[sp].[moe](G)[sp].[moe](C)[sp].[moe](A)[sp].[moe](G)}$$$$V2.0	59% and 52%	
RNA1{[moe](C)[sp].[moe](A)[sp].[moe](A)[sp].d(T)[sp].d(T)[sp].d(T)[sp].d(A)[sp].d(T)[sp].d(G)[sp].d(C)[sp].d(C)[sp].d(T)[sp].d(A)[sp].[cEt](C)[sp].[cEt](A)[sp].[cEt](G)}$$$$V2.0	30% and 20%	
RNA1{[moe](A)[sp].[moe](G)[sp].[moe](G)[sp].[moe](C)[sp].d(A)[sp].d(T)[sp].d(A)[sp].d(G)[sp].d(C)[sp].d(A)[sp].d(G)[sp].d(C)[sp].d(A)[sp].[moe](G)[sp].[moe](G)[sp].[moe](A)[sp].[moe](T)}$$$$V2.0	29% and 31%	
RNA1{[moe](A)[sp].[cEt](G)[sp].d(T)[sp].d(C)[sp].d(C)[sp].d(A)[sp].d(C)[sp].d(C)[sp].d(A)[sp].d(C)[sp].d(G)[sp].d(A)[sp].[cEt](G)[sp].[moe](T)[sp].[cEt](C)[sp].[moe](T)}$$$$V2.0	51% and 43%	
RNA1{[moe](A)[sp].[moe](C)[sp].d(G)[sp].d(T)[sp].d(G)[sp].d(C)[sp].d(A)[sp].d(G)[sp].d(A)[sp].d(G)[sp].d(G)[sp].[moe](T)[sp].[moe](G)[sp].[moe](A)[sp].[moe](A)[sp].[moe](G)}$$$$V2.0	57% and 44%	
RNA1{[moe](C)[sp].[moe](C)[sp].[moe](A)[sp].[moe](A)[sp].[moe](T)[sp].[moe](T)[sp].d(T)[sp].d(A)[sp].d(T)[sp].d(G)[sp].d(C)[sp].d(C)[sp].d(T)[sp].d(A)[sp].d(C)[sp].[moe](A)[sp].[moe](G)}$$$$V2.0	13% and 20%	
RNA1{[moe](C)[sp].[moe](T)[sp].d(A)[sp].d(G)[sp].d(T)[sp].d(A)[sp].d(A)[sp].d(A)[sp].d(C)[sp].d(T)[sp].d(G)[sp].[moe](A)[sp].[moe](G)[sp].[moe](C)[sp].[moe](C)[sp].[moe](A)}$$$$V2.0	52% and 34%	
RNA1{[moe](T)[sp].[moe](T)[sp].[moe](C)[sp].[moe](C)[sp].[moe](G)[sp].[moe](C)[sp].d(A)[sp].d(G)[sp].d(T)[sp].d(A)[sp].d(T)[sp].d(G)[sp].d(G)[sp].d(A)[sp].d(T)[sp].[moe](C)[sp].[moe](G)}$$$$V2.0	45% and 53%	
RNA1{[moe](C)[sp].[moe](T)[sp].[moe](A)[sp].d(G)[sp].d(T)[sp].d(A)[sp].d(A)[sp].d(A)[sp].d(C)[sp].d(T)[sp].d(G)[sp].d(A)[sp].d(G)[sp].[cEt](C)[sp].[cEt](C)[sp].[cEt](A)}$$$$V2.0	71% and 79%	
RNA1{[moe](A)[sp].[moe](G)[sp].[moe](T)[sp].[moe](T)[sp].d(C)[sp].d(C)[sp].d(G)[sp].d(C)[sp].d(A)[sp].d(G)[sp].d(T)[sp].d(A)[sp].d(T)[sp].[moe](G)[sp].[moe](G)[sp].[moe](A)[sp].[moe](T)}$$$$V2.0	43% and 52%	
RNA1{[moe](T)[sp].[moe](T)[sp].[moe](A)[sp].d(T)[sp].d(G)[sp].d(C)[sp].d(C)[sp].d(T)[sp].d(A)[sp].d(C)[sp].d(A)[sp].d(G)[sp].[moe](C)[sp].[moe](C)[sp].[moe](T)[sp].[moe](C)}$$$$V2.0	51% and 41%	
RNA1{[moe](G)[sp].[moe](A)[sp].[moe](G)[sp].d(G)[sp].d(C)[sp].d(A)[sp].d(T)[sp].d(A)[sp].d(G)[sp].d(C)[sp].d(A)[sp].d(G)[sp].[moe](C)[sp].[moe](A)[sp].[moe](G)[sp].[moe](G)[sp].[moe](A)}$$$$V2.0	66% and 57%	
RNA1{[moe](T)[sp].[moe](T)[sp].d(T)[sp].d(A)[sp].d(T)[sp].d(G)[sp].d(C)[sp].d(C)[sp].d(T)[sp].d(A)[sp].d(C)[sp].[moe](A)[sp].[moe](G)[sp].[moe](C)[sp].[moe](C)[sp].[moe](T)[sp].[moe](C)}$$$$V2.0	64% and 54%	
RNA1{[moe](T)[sp].[moe](G)[sp].[moe](G)[sp].[moe](A)[sp].[moe](G)[sp].d(C)[sp].d(C)[sp].d(A)[sp].d(C)[sp].d(C)[sp].d(A)[sp].d(G)[sp].d(C)[sp].d(A)[sp].[moe](G)[sp].[moe](G)}$$$$V2.0	33% and 32%	
RNA1{[moe](G)[sp].[moe](A)[sp].[moe](A)[sp].[moe](G)[sp].[moe](T)[sp].d(C)[sp].d(C)[sp].d(A)[sp].d(C)[sp].d(C)[sp].d(A)[sp].d(C)[sp].d(G)[sp].d(A)[sp].[moe](G)[sp].[moe](T)[sp].[moe](C)}$$$$V2.0	5% and 2%	
RNA1{[moe](A)[sp].[moe](A)[sp].[moe](G)[sp].d(C)[sp].d(G)[sp].d(A)[sp].d(A)[sp].d(G)[sp].d(T)[sp].d(G)[sp].d(C)[sp].d(A)[sp].d(C)[sp].[cEt](A)[sp].[cEt](C)[sp].[cEt](G)}$$$$V2.0	70% and 63%	
